Nine molecules from the supplement of paper PMC8239392 can be followed below.

Experiment [1] concerns TAZ-DEP MCF10A-TAZ tumor cells. Description: cell viability relative to DMSO control; higher = less cytotoxic; extreme values may be limits of the assay. The note with it: 72 h. The method, then: (§1)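 TAZ-dependent (grown with 2 ug/ml dox) and TAZ-independent MCF10A-TAZ tumor-derived breast cancer stem-like cells were plated in 384-well plates and treated with serially diluted compounds (0.65-10 uM) for 72 h. Viability was read by resazurin assay and expressed as % of DMSO-treated control.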

Experiment [2] deals with TAZ-IND MCF10A-TAZ tumor cells. Described as above. The note with it: 72 h. The protocol:
as §1

A word on the cell viability: it is a read-out of living cells in per cent, often relative to untreated cells. With `O=C(NOC[C@H](O)CO)c1ccc(F)c(F)c1Nc1ccc(I)cc1F`, the cell viability in experiment [1] (0.65 µM) was 52%; in experiment [1] (1.25 µM) it was 56%; in experiment [1] (2.5 µM), 53%; in experiment [1] (5 µM), 47%; in experiment [1] (10 µM), 48%; in experiment [2] (0.65 µM) it was 82%. For the same molecule, the cell viability in experiment [2] (1.25 µM) stood at 87%; in experiment [2] (2.5 µM), 84%; in experiment [2] (5 µM) it was 80%; in experiment [2] (10 µM), 78%.

On to `COCCOc1cnc2ccn([C@H](C)c3nnc4c(F)cc(-c5cnn(C)c5)cn34)c(=O)c2c1` [AMG 337], for which the cell viability in experiment [1] (0.65 µM) was 88%; in experiment [1] (1.25 µM), 84%; in experiment [1] (2.5 µM), 77%; in experiment [1] (5 µM) it was 68%; in experiment [1] (10 µM) it was 60%; in experiment [2] (0.65 µM) it was 97%. Besides, the cell viability in experiment [2] (1.25 µM) turned out to be 97%; in experiment [2] (2.5 µM) it was 100%; in experiment [2] (5 µM), 97%; in experiment [2] (10 µM), 100%.

Regarding `Cc1[nH]nc(C(F)(F)F)c1Cc1sc2c(c1C(=O)N1C[C@](C)(O)CO1)c(=O)n(C)c(=O)n2C(C)C` [AZD3965], the cell viability amounted to 54% in experiment [1] (0.65 µM); 49% in experiment [1] (1.25 µM); 45% in experiment [1] (2.5 µM); 39% in experiment [1] (5 µM); 32% in experiment [1] (10 µM); 92% in experiment [2] (0.65 µM). In addition, the cell viability amounted to 87% in experiment [2] (1.25 µM), 91% in experiment [2] (2.5 µM), 60% in experiment [2] (5 µM) and 47% in experiment [2] (10 µM).

`C=CC(=O)Nc1cccc(Oc2nc(Nc3ccc(N4CCN(C)CC4)cc3OC)ncc2Cl)c1` [WZ4002]: the cell viability was 90% in experiment [1] (0.65 µM); 72% in experiment [1] (1.25 µM); 67% in experiment [1] (2.5 µM); 33% in experiment [1] (5 µM); 23% in experiment [1] (10 µM); 96% in experiment [2] (0.65 µM). Besides, the cell viability in experiment [2] (1.25 µM) stood at 97%; in experiment [2] (2.5 µM), 96%; in experiment [2] (5 µM) it was 75%; in experiment [2] (10 µM), 68%.

Turning to `C#Cc1cccc(Nc2ncnc3cc4c(cc23)OCCOCCOCCO4)c1` [Icotinib], the cell viability was 100% in experiment [1] (0.65 µM); 100% in experiment [1] (1.25 µM); 100% in experiment [1] (2.5 µM); 89% in experiment [1] (5 µM); 34% in experiment [1] (10 µM); 100% in experiment [2] (0.65 µM). Moreover, the cell viability in experiment [2] (1.25 µM) is 100%; in experiment [2] (2.5 µM) it was 100%; in experiment [2] (5 µM), 100%; in experiment [2] (10 µM), 96%.

For `CC(C)(C)c1ccc(S(=O)(=O)NCc2ccc(C(=O)Nc3cccnc3)cc2)cc1` [STF-31], the cell viability in experiment [1] (0.65 µM) stood at 100%; in experiment [1] (1.25 µM), 100%; in experiment [1] (2.5 µM), 100%; in experiment [1] (5 µM), 99%; in experiment [1] (10 µM), 98%; in experiment [2] (0.65 µM) it was 99%. Further, the cell viability in experiment [2] (1.25 µM) came out at 100%; in experiment [2] (2.5 µM), 100%; in experiment [2] (5 µM) it was 97%; in experiment [2] (10 µM), 96%.

Take `O=[N+]([O-])C=Cc1ccc2c(c1)OCO2`: the cell viability in experiment [1] (0.65 µM) came to 100%; in experiment [1] (1.25 µM), 100%; in experiment [1] (2.5 µM) it was 100%; in experiment [1] (5 µM), 78%; in experiment [1] (10 µM) it was 1%; in experiment [2] (0.65 µM) it was 100%. Moreover, the cell viability in experiment [2] (1.25 µM) amounted to 99%; in experiment [2] (2.5 µM) it was 98%; in experiment [2] (5 µM) it was 98%; in experiment [2] (10 µM), 31%.

As for `N#CC(=C(/N)Sc1ccccc1N)/C(C#N)=C(\N)Sc1ccccc1N` [U0126-EtOH], the cell viability worked out at 99% in experiment [1] (0.65 µM); 94% in experiment [1] (1.25 µM); 84% in experiment [1] (2.5 µM); 70% in experiment [1] (5 µM); 67% in experiment [1] (10 µM); 95% in experiment [2] (0.65 µM). The cell viability is 94% in experiment [2] (1.25 µM), 89% in experiment [2] (2.5 µM), 84% in experiment [2] (5 µM) and 79% in experiment [2] (10 µM).

Consider `COc1ccccc1S(=O)(=O)Nc1ccc2c(c1)CN(C)C(=O)N2`, for which the cell viability in experiment [1] (0.65 µM) was determined as 91%; in experiment [1] (1.25 µM), 79%; in experiment [1] (2.5 µM) it was 63%; in experiment [1] (5 µM), 54%; in experiment [1] (10 µM), 41%; in experiment [2] (0.65 µM), 100%. Also, the cell viability in experiment [2] (1.25 µM) is 100%; in experiment [2] (2.5 µM) it was 94%; in experiment [2] (5 µM), 91%; in experiment [2] (10 µM) it was 85%.
